Test results reported in US4051141A, “Thieno[3,2-c]pyridine derivatives” (Centre d'Etudes pour l'Industrie pharmaceutique, priority 1973, dated 1977).

Experiments:
[1] = in vivo; details: mouse, iv, read-out: LD50/24 hrs/kg body weight
[2] = tested on: blood plate aggregation; test: Inhibitor action on blood plate aggregation induced by adenosine diphosphate (turbidimetric assay of serum from treated animals); type: in vivo; details: rats, 100 mg/kg
Excerpt: 2. Inhibitor Action on Blood Plate Aggregation
The normally cloudy blood plate rich serum of rats is made clear by addition of adenosine diphosphate which induces aggregation of the blood plates. […] Thus, the inhibitor action on blood plate aggregation of the test derivatives may be evaluated by means of a simple spectrophotometric turbidimetric assay.

[3] = tested on: ovalbumin-induced edema; test: Ovalbumin-induced systemic edema method (anti-inflammatory action); type: in vivo; details: rats, oral 100 mg (1 h before and with ovalbumin)
Description: b. Ovalbumin-induced Systemic Edema Method Rats are administered a simultaneous intraperitoneal injection of 1 ml ovalbumin and 0.5 ml of a 1.[…]. aqueous Evans Blue solution. The animals of the treated lot are additionally administered orally 100 mg of the test derivative, one hour prior to ovalbumin administration and simultaneously with said ovalbumin administration. The intensity of the phenomenon thus induced is scored according to a scale from 1 to 5, according to the progress of the inflammatory syndrome. Thus are determined the mean intensity of the edema and the percent decrease of the edema reaction with respect to the control lot. Said percentage, for derivative No. 5, for example, is 62% after two hours and 70% after three hours.

[4] = tested on: carrageenin-induced edema; test: Localised carrageenin-induced edema method (anti-inflammatory action); type: in vivo; details: rats, oral 100 mg/kg (1 h before, with, 1 h and 2.5 h after)
Description: a. Localised Carrageenin-induced Edema Method A 1% carrageenin solution (1 ml) is injected in the metatarsal flexor muscles of the right hind paw of rats at time O. The animals of the treated lots are additionally administered orally 100 mg/kg of the test derivative, respectively one hour prior to and then simultaneously with the phlogogenic agent, and then one hour and 2.5 hrs thereafter. The percent anti-inflammatory activity with respect to the reference lot, as a function of time, is determined by measurements effected with a Roch micrometer at times O, one hour, two hours, three hours and five hours after carrageenin administration.

[5] = Acute toxicity, LD50/24 hrs, intravenous, derivatives of formula (IV); details: mouse, in vivo, mice, read-out: LD50/24 hrs/kg body weight
Excerpt: It concerned the acute toxicity, the subacute toxicity, the chronic toxicity, the tolerance and the teratology of said derivatives.

SMILES | LD50 at 24 h [5] | also measured
COc1cc(CN2CCc3sccc3C2)cc(OC)c1OC [derivative 3, 5-(3,4,5-trimethoxy-benzyl)-4,5,6,7-tetrahydrothieno[3,2-c]pyridine] | – | LD50 at 24 h [1]: 60 mg/kg
Cl.Clc1ccc(CN2CCc3sccc3C2)cc1 [derivative 5, 5-parachlorobenzyl-4,5,6,7-tetrahydro-thieno-[3,2-c]pyridine hydrochloride] | – | protection against blood plate aggregation [2]: greater than 95%; percent decrease of the edema reaction with respect to the control lot ([3]; after three hours): 70%; percent decrease of the edema reaction with respect to the control lot ([3]; after two hours): 62%; percent anti-inflammatory activity with respect to the reference lot ([4]; after five hours): 55%; percent anti-inflammatory activity with respect to the reference lot ([4]; after one hour): 45%; percent anti-inflammatory activity with respect to the reference lot ([4]; after three hours): 52%; percent anti-inflammatory activity with respect to the reference lot ([4]; after two hours): 51%
O=C(C[n+]1ccc2sccc2c1)c1ccccc1.[Br-] [derivative No. 24, 5-phenacyl-thieno[3,2-c]pyridinium bromide] | 19 mg/kg | –
COc1ccccc1C(=O)C[n+]1ccc2sccc2c1 [derivative No. 25, 5-(O-Methoxy-Phenacyl)-Thieno[3,2-c]Pyridinium bromide] | 18 mg/kg | –
O=C(C[n+]1ccc2sc(Cl)cc2c1)c1ccccc1.[Br-] [derivative No. 26, 2-chloro-5-phenacyl-thieno[3,2-c]pyridinium bromide] | 38 mg/kg | –
O=C(C[n+]1ccc2sccc2c1)c1ccc(Cl)cc1.[Br-] [derivative No. 27, N-parachloro-phenacyl-thieno[3,2-c]pyridinium bromide] | 17.5 mg/kg | –
O=C(C[n+]1ccc2sccc2c1)c1ccc(F)cc1.[Cl-] [derivative No. 29, 5-para-fluoro-phenacyl-thieno[3,2-c]pyridinium chloride] | 16 mg/kg | –
O=C(C[n+]1ccc2sccc2c1)c1ccc(O)cc1.[Cl-] [derivative No. 30, N-(para-hydroxy-phenacyl)-thieno[3,2-c]pyridinium chloride] | 25 mg/kg | –
COc1ccc(C(=O)C[n+]2ccc3sccc3c2)cc1.[Br-] [derivative No. 31, N-(para-methoxy-phenacyl)-thieno[3,2-c]pyridinium bromide] | 32 mg/kg | –
COc1cccc(C(=O)C[n+]2ccc3sccc3c2)c1.[Br-] [derivative No. 32, N-(meta-methoxy-phenacyl)-thieno[3,2-c]pyridinium bromide] | 16 mg/kg | –
